Data published in patent US20030004172A1, “Fused pyrimidinone matrix metalloproteinase inhibitors” (priority 2001, published 2003).
Like-named read-outs stand apart in the source and are kept apart here.

Key:
Format in all cases: biochemical
[1] = target: MMP-14CD (catalytic domain of MMP-14) (Homo sapiens, UniProt P50281); experiment: Thiopeptolide substrate hydrolysis inhibition assay, MMP-14CD; conditions: Table II; micromolar concentration; HEPES pH 7.0
Excerpt: (§1) Thiopeptolide substrates show virtually no decomposition or hydrolysis at or below neutral pH in the absence of a matrix metalloproteinase enzyme.

[2] = target: MMP-9FL (full-length Gelatinase B) (Homo sapiens, UniProt P14780); experiment: Thiopeptolide substrate hydrolysis inhibition assay, MMP-9FL; conditions: Table II; micromolar concentration; HEPES pH 7.0
Sequence of MMP-9FL (full-length Gelatinase B) (P14780 94-707, species assumed): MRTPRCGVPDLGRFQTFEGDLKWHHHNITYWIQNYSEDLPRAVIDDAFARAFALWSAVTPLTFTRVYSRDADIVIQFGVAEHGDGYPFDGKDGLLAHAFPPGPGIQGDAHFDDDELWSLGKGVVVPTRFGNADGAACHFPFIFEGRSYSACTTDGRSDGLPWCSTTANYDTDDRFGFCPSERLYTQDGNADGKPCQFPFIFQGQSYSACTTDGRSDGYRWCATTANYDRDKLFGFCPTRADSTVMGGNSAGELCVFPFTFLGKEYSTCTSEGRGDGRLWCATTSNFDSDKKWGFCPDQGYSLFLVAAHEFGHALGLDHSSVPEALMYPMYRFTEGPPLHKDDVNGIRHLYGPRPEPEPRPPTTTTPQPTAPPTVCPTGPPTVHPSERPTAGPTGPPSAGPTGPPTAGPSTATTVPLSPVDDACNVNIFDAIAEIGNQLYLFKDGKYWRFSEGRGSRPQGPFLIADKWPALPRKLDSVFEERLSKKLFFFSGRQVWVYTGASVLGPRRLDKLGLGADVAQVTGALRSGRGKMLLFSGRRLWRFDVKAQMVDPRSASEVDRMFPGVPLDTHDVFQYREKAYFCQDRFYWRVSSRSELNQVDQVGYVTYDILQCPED
Excerpt: as §1

[3] = target: T1, MMP-7FL (full-length matrilysin) (Homo sapiens, UniProt P09237); experiment: Thiopeptolide substrate hydrolysis inhibition assay, MMP-7FL; conditions: Table II; micromolar concentration; HEPES pH 7.0
T1 sequence (P09237 95-267): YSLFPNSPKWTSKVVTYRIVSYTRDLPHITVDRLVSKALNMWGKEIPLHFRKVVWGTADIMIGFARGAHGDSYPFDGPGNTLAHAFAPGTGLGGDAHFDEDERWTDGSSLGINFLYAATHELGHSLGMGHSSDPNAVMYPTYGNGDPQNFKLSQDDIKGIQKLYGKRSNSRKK
Excerpt: as §1

[4] = target: T2, MMP-2FL (full length Gelatinase A) (Homo sapiens, UniProt P08253); experiment: Thiopeptolide substrate hydrolysis inhibition assay, MMP-2FL; conditions: Table II; micromolar concentration; HEPES pH 7.0
T2 sequence (P08253 110-660): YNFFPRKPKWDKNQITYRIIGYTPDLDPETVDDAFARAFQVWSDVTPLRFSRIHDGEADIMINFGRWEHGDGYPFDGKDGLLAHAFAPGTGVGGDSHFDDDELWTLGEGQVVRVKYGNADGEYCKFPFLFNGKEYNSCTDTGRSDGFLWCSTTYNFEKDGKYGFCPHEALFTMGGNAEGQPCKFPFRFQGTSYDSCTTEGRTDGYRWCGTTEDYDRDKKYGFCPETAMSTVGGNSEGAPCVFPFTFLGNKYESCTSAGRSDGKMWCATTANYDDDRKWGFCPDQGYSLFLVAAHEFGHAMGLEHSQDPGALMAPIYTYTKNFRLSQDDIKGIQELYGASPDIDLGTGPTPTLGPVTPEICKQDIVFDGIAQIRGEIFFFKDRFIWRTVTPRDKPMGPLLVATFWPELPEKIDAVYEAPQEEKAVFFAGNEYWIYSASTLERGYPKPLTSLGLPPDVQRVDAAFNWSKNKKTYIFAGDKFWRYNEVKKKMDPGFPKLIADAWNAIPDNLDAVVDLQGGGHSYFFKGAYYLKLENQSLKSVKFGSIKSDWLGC
Excerpt: as §1

[5] = target: T3, MMP-1FL (full-length interstitial collagenase) (Homo sapiens, UniProt P03956); experiment: Thiopeptolide substrate hydrolysis inhibition assay, MMP-1FL; conditions: Table II; micromolar concentration; HEPES pH 7.0
T3 sequence (P03956 100-469): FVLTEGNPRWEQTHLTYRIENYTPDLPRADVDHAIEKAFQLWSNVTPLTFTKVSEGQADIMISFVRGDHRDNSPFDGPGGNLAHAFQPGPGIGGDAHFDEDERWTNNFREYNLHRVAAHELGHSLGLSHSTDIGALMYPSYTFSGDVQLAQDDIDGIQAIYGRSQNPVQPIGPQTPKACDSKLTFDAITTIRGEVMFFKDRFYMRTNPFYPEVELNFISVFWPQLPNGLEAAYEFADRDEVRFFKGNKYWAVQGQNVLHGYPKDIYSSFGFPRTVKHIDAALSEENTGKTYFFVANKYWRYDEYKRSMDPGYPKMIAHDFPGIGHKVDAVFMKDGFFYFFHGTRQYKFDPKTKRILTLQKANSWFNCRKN
Excerpt: as §1

[6] = target: MMP-3CD (catalytic domain of stromelysin-1) (Homo sapiens, UniProt P08254); experiment: Thiopeptolide substrate hydrolysis inhibition assay, MMP-3CD; conditions: Table II; micromolar concentration; MES buffer pH 6.0
Sequence of MMP-3CD (catalytic domain of stromelysin-1) (P08254 100-272 limits assumed): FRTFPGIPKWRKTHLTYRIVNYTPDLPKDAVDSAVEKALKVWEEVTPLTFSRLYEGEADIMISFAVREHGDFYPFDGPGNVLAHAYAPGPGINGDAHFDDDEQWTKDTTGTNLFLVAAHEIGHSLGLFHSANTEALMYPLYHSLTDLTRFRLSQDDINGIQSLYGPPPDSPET
Method: as §1
It should be appreciated that the assay buffer used with MMP-3CD is 50 mM N-morpholinoethanesulfonate (“MES”) at pH 6.0 rather than the HEPES buffer at pH 7.0 described above.

[7] = target: T4, MMP-12CD (Homo sapiens, UniProt P39900); experiment: Thiopeptolide substrate hydrolysis inhibition assay, MMP-12CD; conditions: Table II; micromolar concentration; HEPES pH 7.0
T4 construct: 12CD
T4 sequence (P39900 106-263 limits assumed): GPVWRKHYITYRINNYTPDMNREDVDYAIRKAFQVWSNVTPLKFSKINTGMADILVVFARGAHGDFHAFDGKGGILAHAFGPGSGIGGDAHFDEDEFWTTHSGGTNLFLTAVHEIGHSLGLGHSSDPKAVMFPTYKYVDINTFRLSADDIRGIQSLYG
Excerpt: as §1

[8] = target: MMP-13CD (catalytic domain of collagenase-3) (Homo sapiens, UniProt P45452); experiment: Thiopeptolide substrate hydrolysis inhibition assay, MMP-13CD
Excerpt: as §1

[9] = Table II, micromolar concentration, HEPES pH 7.0, read-out: IC50 MMP-13CD
[10] = Table I, thiopeptolide substrate, HEPES pH 7.0, 22° C., read-out: MMP-13CD IC50

Row | SMILES | IC50 [1] [µM] | IC50 [2] [µM] | IC50 [3] [µM] | IC50 [4] [µM] | IC50 [5] [µM] | IC50 [6] [µM] | IC50 [7] [µM] | IC50 [8, 9] [µM] | IC50 [8, 10] [µM]
1 | COc1cccc(CNC(=O)c2cc3c(=O)n(Cc4ccc(S(=O)(=O)N5CCC(C)CC5)cc4)c(=O)n(C)c3s2)c1 [Example 47, 1-Methyl-3-[4-(4-methyl-piperidine-1-sulfonyl)-benzyl]-2,4-dioxo-1,2,3,4-tetrahydro-thieno[2,3-d]pyrimidine-6-carboxylic acid 3-methoxy-benzylamide] | 10 | 30 | 14 | 30 | 30 | 30 | 30 | 0.038 | 
2 | COc1cccc(CNC(=O)c2cc3c(=O)n(CCS(=O)(=O)c4ccc(Cl)cc4)c(=O)n(C)c3s2)c1 [Example 246, 3-[2-(4-Chloro-benzenesulfonyl)-ethyl]-1-methyl-2,4-dioxo-1,2,3,4-tetrahydro-thieno[2,3-d]pyrimidine-6-carboxylic acid 3-methoxy-benzylamide] | 36 | 30 | 48 | 30 |  | 23 | 30 | 5.65 | 5.65
3 | Cn1c(=O)n(Cc2ccccc2)c(=O)c2cc(C(=O)OCc3ccncc3)sc21 [Example 303, 3-Benzyl-1-methyl-2,4-dioxo-1,2,3,4-tetrahydro-thieno[2,3-d]pyrimidine-6-carboxylic acid pyridin-4-ylmethyl ester] |  | 30 | 32 |  |  | 6 |  | 0.0036 | 0.0036
4 | COC(=O)c1ccc(Cn2c(=O)c3cc(C(N)=O)sc3n(C)c2=O)cc1C [Example 249a] | 30 | 30 | 30 | 30 |  |  |  | 0.64 | 0.64
5 | COc1ccc(CNC(=O)c2cc3c(=O)n(CCOc4ccc(Br)cc4)c(=O)n(C)c3s2)cc1 [Example 232, 3-[2-(4-Bromo-phenoxy)-ethyl]-1-methyl-2,4-dioxo-1,2,3,4-tetrahydro-thieno[2,3-d]pyrimidine-6-carboxylic acid 4-methoxy-benzylamide] | 30 | 30 | 30 | 30 | 30 | 17 | 30 | 0.18 | 0.175
6 | COc1ccc(CNC(=O)c2cc3c(=O)n(Cc4cccc(OC)c4)c(=O)n(C)c3s2)cc1 [Example 63, 3-(3-Methoxy-benzyl)-1-methyl-2,4-dioxo-1,2,3,4-tetrahydro-thieno[2,3-d]pyrimidine-6-carboxylic acid 4-methoxy-benzylamide] | 30 | 30 | 30 | 30 | 30 | 18 | 30 | 0.11 | 0.11
7 | COC(=O)c1ccc(Cn2c(=O)c3cc(C(=O)NCc4ccc(OC)cc4)sc3n(C)c2=O)cc1OC [Example 228, 2-Methoxy-4-[6-(4-methoxy-benzylcarbamoyl)-1-methyl-2,4-dioxo-1,4-dihydro-2H-thieno[2,3-d]pyrimidin-3-ylmethyl]-benzoic acid methyl ester] | 30 | 30 | 10 | 30 | 30 | 15 | 30 | 0.435 | 0.435
8 | CCCCNC(=O)NS(=O)(=O)c1ccc(Cn2c(=O)c3cc(C(=O)NCc4cccc(OC)c4)sc3n(C)c2=O)cc1 [Example 231a] | 30 | 91 | 46 | 50 |  | 13 | 30 | 0.009 | 0.00895
9 | COc1ccc(CNC(=O)c2cc3c(=O)n(Cc4ccc([N+](=O)[O-])nc4)c(=O)n(C)c3s2)cc1 [Example 369, 1-Methyl-3-(6-nitro-pyridin-3-ylmethyl)-2,4-dioxo-1,2,3,4-tetrahydro-thieno[2,3-d]pyrimidine-6-carboxylic acid 4-methoxy-benzylamide] | 30 | 30 | 30 | 30 | 10 | 10 | 30 | 1.04 | 1.04
